# Data from ChEMBL document CHEMBL4311992, “Discovery of 3-(((9H-purin-6-yl)amino)methyl)-4,6-dimethylpyridin-2(1H)-one derivatives as novel tubulin polymerization inhibitors for treatment of cancer” (Eur J Med Chem, 2019).
# Calls of active or inactive are those of the source. No cut-off for these calls is given here.
# What was measured:
# [1] = target: BDNF/NT-3 growth factors receptor (Homo sapiens) (UniProt Q16620); experiment: Inhibition of human TrkB (455 to end residues) using poly(Glu, Tyr) 4:1 as substrate measured after 40 mins in presence of [gamma33P]ATP by scintillation counting method; design: scale not given: the % may be the effect or the level left
# [2] = target: Serine/threonine-protein kinase Sgk3 (Homo sapiens) (UniProt Q96BR1); experiment: Inhibition of human SGK3 (119 to end residues) using GRPRTSSFAEGKK as substrate measured after 40 mins in presence of [gamma33P]ATP by scintillation counting method; design: scale not given: the % may be the effect or the level left
# Chain of Serine/threonine-protein kinase Sgk3 (Homo sapiens) (Q96BR1 whole entry): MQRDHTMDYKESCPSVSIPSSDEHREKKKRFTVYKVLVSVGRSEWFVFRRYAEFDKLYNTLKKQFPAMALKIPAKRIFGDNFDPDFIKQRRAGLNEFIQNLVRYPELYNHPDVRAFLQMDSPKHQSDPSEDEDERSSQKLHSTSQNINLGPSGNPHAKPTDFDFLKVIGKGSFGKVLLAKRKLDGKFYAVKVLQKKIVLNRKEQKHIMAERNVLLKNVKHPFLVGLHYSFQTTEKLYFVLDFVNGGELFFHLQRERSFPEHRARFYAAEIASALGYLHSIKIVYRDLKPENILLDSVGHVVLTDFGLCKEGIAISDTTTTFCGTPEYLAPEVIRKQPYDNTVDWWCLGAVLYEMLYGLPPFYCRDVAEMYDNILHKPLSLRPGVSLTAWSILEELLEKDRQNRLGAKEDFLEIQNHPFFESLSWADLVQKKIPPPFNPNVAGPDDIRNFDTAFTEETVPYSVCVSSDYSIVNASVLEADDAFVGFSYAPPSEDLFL
# [3] = system: Serine/threonine-protein kinase Sgk1 (Homo sapiens), O00141 [S422D]; experiment: Inhibition of recombinant human SGK S422D mutant (60 to end residues) assessed as residual activity at 10 uM using GRPRTSSFAEGKK as substrate measured after 40 mins in presence of [gamma33P]ATP by scintillation counting method
# Chain of Serine/threonine-protein kinase Sgk1 (Homo sapiens), O00141 [S422D] (O00141 whole entry S422D): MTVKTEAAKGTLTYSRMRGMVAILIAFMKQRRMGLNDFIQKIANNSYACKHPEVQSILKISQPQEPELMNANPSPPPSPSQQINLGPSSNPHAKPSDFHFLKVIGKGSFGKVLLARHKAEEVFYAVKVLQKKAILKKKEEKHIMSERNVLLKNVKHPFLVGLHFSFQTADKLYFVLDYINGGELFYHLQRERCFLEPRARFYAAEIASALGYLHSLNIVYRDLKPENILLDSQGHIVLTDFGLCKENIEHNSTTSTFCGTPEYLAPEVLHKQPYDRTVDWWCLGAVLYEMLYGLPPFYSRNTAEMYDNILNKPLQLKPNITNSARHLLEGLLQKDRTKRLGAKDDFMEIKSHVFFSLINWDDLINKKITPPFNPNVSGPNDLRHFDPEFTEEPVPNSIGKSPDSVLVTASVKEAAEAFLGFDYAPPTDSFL
# [4] = target: Ribosomal protein S6 kinase alpha-1 (Homo sapiens) (UniProt Q15418); experiment: Inhibition of recombinant full-length human Rsk1 assessed as residual activity at 10 uM using KKKNRTLSVA as substrate measured after 40 mins in presence of [gamma33P]ATP by scintillation counting method
# Chain of Ribosomal protein S6 kinase alpha-1 (Homo sapiens) (Q15418 whole entry): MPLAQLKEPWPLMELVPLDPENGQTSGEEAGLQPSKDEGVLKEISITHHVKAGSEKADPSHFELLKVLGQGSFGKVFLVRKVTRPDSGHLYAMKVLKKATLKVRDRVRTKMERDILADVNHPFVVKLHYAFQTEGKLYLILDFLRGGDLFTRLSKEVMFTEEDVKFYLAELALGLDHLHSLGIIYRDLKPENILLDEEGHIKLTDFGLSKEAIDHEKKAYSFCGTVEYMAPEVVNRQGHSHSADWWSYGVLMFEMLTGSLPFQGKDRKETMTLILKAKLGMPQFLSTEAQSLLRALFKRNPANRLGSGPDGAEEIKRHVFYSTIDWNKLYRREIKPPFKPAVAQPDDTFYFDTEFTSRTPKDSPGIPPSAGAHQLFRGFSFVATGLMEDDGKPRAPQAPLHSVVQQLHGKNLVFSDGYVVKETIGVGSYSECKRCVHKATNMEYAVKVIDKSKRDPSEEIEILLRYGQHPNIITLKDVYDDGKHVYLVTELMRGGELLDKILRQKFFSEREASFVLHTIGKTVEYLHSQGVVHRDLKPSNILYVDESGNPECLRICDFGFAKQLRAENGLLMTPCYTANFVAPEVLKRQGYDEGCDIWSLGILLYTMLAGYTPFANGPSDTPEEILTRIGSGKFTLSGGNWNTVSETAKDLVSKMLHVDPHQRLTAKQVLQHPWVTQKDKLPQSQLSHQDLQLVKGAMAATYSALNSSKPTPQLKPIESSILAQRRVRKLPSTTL
# [5] = target: Protein kinase C delta type (Homo sapiens) (UniProt Q05655); experiment: Inhibition of recombinant human PKCdelta (2 to end residues) assessed as residual activity at 10 uM using ERMRPRKRQGSVRRRV as substrate measured after 40 mins in presence of [gamma33P]ATP by scintillation counting method
# [6] = system: Hepatocyte growth factor receptor (Homo sapiens), P08581 [Y1230C]; experiment: Inhibition of recombinant human MET A1209G/V1290L/Y1248C mutant (974 to end residues) assessed as residual activity at 10 uM using KKKGQEEEYVFIE as substrate measured after 40 mins in presence of [gamma33P]ATP by scintillation counting method
# [7] = target: MAP kinase-activated protein kinase 3 (Homo sapiens) (UniProt Q16644); experiment: Inhibition of recombinant human MAPKAPK3 (2 to end residues) assessed as residual activity at 10 uM using KKLNRTLSVA as substrate measured after 40 mins in presence of [gamma33P]ATP by scintillation counting method
# [8] = target: Serine/threonine-protein kinase BRSK1 (Homo sapiens) (UniProt Q8TDC3); experiment: Inhibition of recombinant human BrSK1 (2 to end residues) assessed as residual activity at 10 uM using KKKVSRSGLYRSPSMPENLNRPR as substrate measured after 120 mins in presence of [gamma33P]ATP by scintillation counting method
# [9] = target: Inhibitor of nuclear factor kappa-B kinase subunit beta (Homo sapiens) (UniProt O14920); experiment: Inhibition of recombinant full-length human IKKbeta assessed as residual activity at 10 uM using peptide substrate measured after 40 mins in presence of [gamma33P]ATP by scintillation counting method
# Chain of Inhibitor of nuclear factor kappa-B kinase subunit beta (Homo sapiens) (O14920 whole entry, the tested form may be a part): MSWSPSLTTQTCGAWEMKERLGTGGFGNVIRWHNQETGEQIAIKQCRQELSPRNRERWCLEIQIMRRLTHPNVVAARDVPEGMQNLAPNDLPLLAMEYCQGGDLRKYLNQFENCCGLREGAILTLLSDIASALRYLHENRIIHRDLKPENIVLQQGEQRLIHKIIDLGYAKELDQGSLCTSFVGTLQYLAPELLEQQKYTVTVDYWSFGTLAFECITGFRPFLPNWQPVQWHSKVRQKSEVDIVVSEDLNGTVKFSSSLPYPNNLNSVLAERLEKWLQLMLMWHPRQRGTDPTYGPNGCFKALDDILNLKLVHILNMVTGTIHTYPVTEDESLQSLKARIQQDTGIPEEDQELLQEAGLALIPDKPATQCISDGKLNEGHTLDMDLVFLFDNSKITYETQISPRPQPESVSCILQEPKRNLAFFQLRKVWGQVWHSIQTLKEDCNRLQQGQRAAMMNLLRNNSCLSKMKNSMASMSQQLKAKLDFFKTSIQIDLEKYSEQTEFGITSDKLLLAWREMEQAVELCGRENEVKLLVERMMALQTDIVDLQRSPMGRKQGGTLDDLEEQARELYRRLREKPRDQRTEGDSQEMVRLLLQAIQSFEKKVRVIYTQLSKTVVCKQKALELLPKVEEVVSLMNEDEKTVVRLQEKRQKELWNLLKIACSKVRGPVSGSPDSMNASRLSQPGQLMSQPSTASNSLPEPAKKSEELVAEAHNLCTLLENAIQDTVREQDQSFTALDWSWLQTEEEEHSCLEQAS
# [10] = target: Homeodomain-interacting protein kinase 3 (Homo sapiens) (UniProt Q9H422); experiment: Inhibition of recombinant human HIPK3 (161 to 562 residues) assessed as residual activity at 10 uM using myelin basic protein as substrate measured after 40 mins in presence of [gamma33P]ATP by scintillation counting method
# Chain of Homeodomain-interacting protein kinase 3 (Homo sapiens) (Q9H422 whole entry, looked up, the tested form may be a part): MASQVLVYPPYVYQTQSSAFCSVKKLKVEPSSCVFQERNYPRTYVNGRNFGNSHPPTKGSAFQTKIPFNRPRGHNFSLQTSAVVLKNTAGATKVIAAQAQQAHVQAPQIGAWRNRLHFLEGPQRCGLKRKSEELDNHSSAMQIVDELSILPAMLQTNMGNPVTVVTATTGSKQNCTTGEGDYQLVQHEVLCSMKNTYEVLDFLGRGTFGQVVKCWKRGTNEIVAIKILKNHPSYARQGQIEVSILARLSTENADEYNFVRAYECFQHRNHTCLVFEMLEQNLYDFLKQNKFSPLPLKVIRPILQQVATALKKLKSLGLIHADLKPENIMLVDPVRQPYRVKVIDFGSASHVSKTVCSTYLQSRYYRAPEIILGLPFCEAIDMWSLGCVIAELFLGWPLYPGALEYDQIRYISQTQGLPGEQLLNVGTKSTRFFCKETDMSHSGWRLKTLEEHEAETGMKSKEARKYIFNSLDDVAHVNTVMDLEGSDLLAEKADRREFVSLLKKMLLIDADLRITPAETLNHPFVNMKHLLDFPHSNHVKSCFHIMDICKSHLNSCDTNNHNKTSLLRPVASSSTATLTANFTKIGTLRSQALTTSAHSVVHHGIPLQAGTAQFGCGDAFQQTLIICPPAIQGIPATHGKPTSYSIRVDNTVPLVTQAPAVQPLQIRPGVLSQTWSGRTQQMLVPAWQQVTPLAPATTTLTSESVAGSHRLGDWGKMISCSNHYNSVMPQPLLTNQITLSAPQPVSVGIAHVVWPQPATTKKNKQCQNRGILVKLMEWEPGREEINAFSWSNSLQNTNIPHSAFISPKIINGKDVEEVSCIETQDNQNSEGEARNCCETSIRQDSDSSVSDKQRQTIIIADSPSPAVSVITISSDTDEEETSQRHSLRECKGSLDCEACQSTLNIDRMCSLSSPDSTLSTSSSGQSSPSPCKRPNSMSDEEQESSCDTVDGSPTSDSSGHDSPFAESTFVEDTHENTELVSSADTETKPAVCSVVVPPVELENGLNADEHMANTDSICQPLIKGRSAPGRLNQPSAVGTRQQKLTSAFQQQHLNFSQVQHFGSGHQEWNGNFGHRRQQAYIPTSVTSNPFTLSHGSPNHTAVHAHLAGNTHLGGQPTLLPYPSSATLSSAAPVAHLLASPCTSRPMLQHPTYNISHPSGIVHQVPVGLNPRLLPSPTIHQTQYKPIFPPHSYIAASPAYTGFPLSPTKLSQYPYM
# [11] = target: CDK6/cyclin D3 (Homo sapiens) (UniProt P30281+Q00534); experiment: Inhibition of recombinant full-length human CDK6/cyclin D3 assessed as residual activity at 10 uM using histone H1 as substrate measured after 40 mins in presence of [gamma33P]ATP by scintillation counting method; format: protein-complex assay
# [12] = target: Mast/stem cell growth factor receptor Kit (Homo sapiens) (UniProt P10721); experiment: Inhibition of recombinant human c-Kit (544 to end residues) assessed as residual activity at 10 uM using poly(Glu, Tyr) 4:1 as substrate measured after 40 mins in presence of [gamma33P]ATP by scintillation counting method
# SW-620 [13] = experiment: Cell cycle arrest in human SW620 cells assessed as up regulation of CyclinB1 expression up to 150 nM after 24 hrs by Western blot analysis; format: functional, cell-based
# [14] = target: Casein kinase I isoform gamma-2 (Homo sapiens) (UniProt P78368); experiment: Inhibition of recombinant human CK1gamma2 (18 to end residues) assessed as residual activity at 10 uM using KRRRALS(p)VASLPGL as substrate measured after 40 mins in presence of [gamma33P]ATP by scintillation counting method
# Chain of Casein kinase I isoform gamma-2 (Homo sapiens) (P78368 whole entry, looked up, the tested form may be a part, canonical isoform): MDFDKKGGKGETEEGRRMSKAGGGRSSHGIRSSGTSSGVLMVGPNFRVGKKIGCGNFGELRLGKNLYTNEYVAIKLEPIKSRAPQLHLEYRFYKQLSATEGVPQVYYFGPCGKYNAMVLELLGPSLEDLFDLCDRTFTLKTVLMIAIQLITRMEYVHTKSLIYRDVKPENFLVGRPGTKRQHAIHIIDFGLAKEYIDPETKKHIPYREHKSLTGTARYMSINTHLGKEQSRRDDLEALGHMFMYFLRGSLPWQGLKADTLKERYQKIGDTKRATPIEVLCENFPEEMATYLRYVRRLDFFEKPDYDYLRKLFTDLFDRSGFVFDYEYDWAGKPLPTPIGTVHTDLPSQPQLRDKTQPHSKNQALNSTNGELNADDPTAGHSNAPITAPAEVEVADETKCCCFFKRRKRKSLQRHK
# [15] = target: Casein kinase I isoform delta (Homo sapiens) (UniProt P48730); experiment: Inhibition of recombinant human CK1delta (1 to 294 residues) assessed as residual activity at 10 uM using KRRRALS(p)VASLPGL as substrate measured after 40 mins in presence of [gamma33P]ATP by scintillation counting method
# Chain of Casein kinase I isoform delta (Homo sapiens) (P48730 whole entry, looked up, the tested form may be a part, canonical isoform): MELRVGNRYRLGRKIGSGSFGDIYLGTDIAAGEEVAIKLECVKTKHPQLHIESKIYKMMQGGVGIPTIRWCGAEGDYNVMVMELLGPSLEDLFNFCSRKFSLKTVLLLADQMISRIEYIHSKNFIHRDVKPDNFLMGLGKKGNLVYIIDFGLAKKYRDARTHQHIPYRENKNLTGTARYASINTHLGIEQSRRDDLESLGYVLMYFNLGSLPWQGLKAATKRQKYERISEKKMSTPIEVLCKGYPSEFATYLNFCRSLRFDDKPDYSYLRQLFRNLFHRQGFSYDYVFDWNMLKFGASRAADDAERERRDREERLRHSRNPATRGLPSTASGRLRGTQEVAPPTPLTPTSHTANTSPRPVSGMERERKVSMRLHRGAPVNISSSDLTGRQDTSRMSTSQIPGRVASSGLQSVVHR
# [16] = target: Ephrin type-A receptor 3 (Homo sapiens) (UniProt P29320); experiment: Inhibition of recombinant human EphA3 (578 to end residues) assessed as residual activity at 10 uM using poly(Glu, Tyr) 4:1 as substrate measured after 40 mins in presence of [gamma33P]ATP by scintillation counting method
# [17] = target: Mitogen-activated protein kinase kinase kinase 9 (Homo sapiens) (UniProt P80192); experiment: Inhibition of recombinant human MLK1 (134 to 414 residues) assessed as residual activity at 10 uM using casein as substrate measured after 40 mins in presence of [gamma33P]ATP by scintillation counting method
# [18] = target: Serine/threonine-protein kinase MRCK gamma (Homo sapiens) (UniProt Q6DT37); experiment: Inhibition of recombinant human MRCKgamma assessed as residual activity at 10 uM using KKRNRTLTV as substrate measured after 40 mins in presence of [gamma33P]ATP by scintillation counting method
# [19] = target: Serine/threonine-protein kinase PAK 3 (Homo sapiens) (UniProt O75914); experiment: Inhibition of recombinant full-length human PAK3 assessed as residual activity at 10 uM using RRRLSFAEPG as substrate measured after 40 mins in presence of [gamma33P]ATP by scintillation counting method
# Chain of Serine/threonine-protein kinase PAK 3 (Homo sapiens) (O75914 whole entry, looked up, the tested form may be a part): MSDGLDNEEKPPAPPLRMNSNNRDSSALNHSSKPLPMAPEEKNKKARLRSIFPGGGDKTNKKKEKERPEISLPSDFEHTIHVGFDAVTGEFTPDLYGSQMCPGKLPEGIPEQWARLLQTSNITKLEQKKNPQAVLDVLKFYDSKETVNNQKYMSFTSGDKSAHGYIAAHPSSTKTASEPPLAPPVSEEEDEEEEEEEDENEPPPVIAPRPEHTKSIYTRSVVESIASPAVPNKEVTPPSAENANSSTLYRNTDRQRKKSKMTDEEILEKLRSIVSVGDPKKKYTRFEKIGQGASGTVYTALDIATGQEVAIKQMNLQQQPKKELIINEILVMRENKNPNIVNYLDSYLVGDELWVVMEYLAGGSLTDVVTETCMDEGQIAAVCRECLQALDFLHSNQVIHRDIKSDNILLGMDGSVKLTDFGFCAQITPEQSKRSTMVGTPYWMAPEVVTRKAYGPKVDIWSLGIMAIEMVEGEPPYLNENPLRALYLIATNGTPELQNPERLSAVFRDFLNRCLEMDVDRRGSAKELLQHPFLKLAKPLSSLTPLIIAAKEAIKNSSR
# [20] = target: Serine/threonine-protein kinase TAO1 (Homo sapiens) (UniProt Q7L7X3); experiment: Inhibition of human TAO1 (1 to 327 residues) using myelin basic protein as substrate measured after 40 mins in presence of [gamma33P]ATP by scintillation counting method; design: scale not given: the % may be the effect or the level left
# [21] = Toxicity in nude BALB/c mouse assessed as change in platelet level at 40 to 80 mg/kg, po once daily for 4 weeks measured post-last dose; format: organism-based; details: in vivo, 672 h
# SW-620 [22] = experiment: Induction of apoptosis in human SW620 cells assessed as early apoptotic cells at 100 nM measured after 48 hrs by Annexin V-FITC/propidium iodide staining-based flow cytometry (reference value: 0.773%); format: functional
# SW-620 [23] = experiment: Induction of apoptosis in human SW620 cells assessed as late apoptotic cells at 25 nM measured after 48 hrs by Annexin V-FITC/propidium iodide staining-based flow cytometry (reference value: 1.8%); format: functional
# HCT-116 = experiment: Induction of apoptosis in human HCT116 cells assessed as late apoptotic cells at 100 nM measured after 48 hrs by Annexin V-FITC/propidium iodide staining-based flow cytometry (reference value: 3.87%); format: functional
structure (smiles),measurement,setting,value
Cc1cc(C)c(CNc2nc(Cl)nc3c2ncn3C2CCCC2)c(=O)[nH]1,Activity,[1],126%
same,Activity,[2],102%
same,Activity,[3],136%
same,Activity,[4],112%
same,Activity,[5],111%
same,Activity,[6],110%
same,Activity,[7],106%
same,Activity,[8],140%
same,Activity,[9],102%
same,Activity,[10],106%
same,Activity,[11],98.5%
same,Activity,[12],99.5%
same,Activity,SW-620 [13],Active
same,Activity,[14],104%
same,Activity,[15],103%
same,Activity,[16],102%
same,Activity,[17],104%
same,Activity,[18],122%
same,Activity,[19],134%
same,Activity,[20],93.5%
same,Activity,[21],Non-Toxic
same,Activity,SW-620 [22],3.55%
same,Activity,SW-620 [23],4.23%
same,Activity,HCT-116,42.6%
